According to patent US20190380957A1, “Protein Hydrogels For Treatment Of Neovascular Disease” (New Jersey Institute of Technology, priority 2018, published 2019):

Columns and labels:
endothelial cells = details: previously shown; cited from earlier work
[1] = biological target: GRP78 (glucose-regulated protein 78) (Homo sapiens, UniProt P11021); details: previously shown; cited from earlier work
[2] = system: human umbilical vein endothelial cells (HUVECs); assay: Tube formation assay; assay type: cell-based; details: positive control, 1.8 mM suramin in media
Procedure: To assay the anti-angiogenic effect of the self-assembled peptide on endothelial cells, tube formation assays were performed for a range of peptide concentrations. This assay captures the propensity of human ECs or HUVECs to form capillary-like tubules. The process is sensitive to the presence of anti-angiogenic compounds. HUVECs were seeded along with varying concentrations of SL-Kr5 solution on a basement membrane extract matrix to stimulate the formation of capillary tubules. The effects of the peptide on the HUVECs were characterized by measuring the extent of tube formation in terms of total length of tubules formed, number of segments, number of branches, number of junctions, number of nodes, and […] (FIGS. 8A-8F, FIGS. 9A-9D). […]
Tube Formation Assay: HUVECs (Lonza) were cultured in T75 flasks using an Endothelial Cell Growth Medium BulletKit (Lonza). […] The negative control was supplemented with 298 mM sucrose to match the corresponding highest quantity added to the test conditions, and the positive control contained 1.8 mM suramin. The 96-well plate was then incubated at 37° C. for 4 to 6 hours before imaging on a Nikon Instruments Eclipse Ti-S inverted fluorescence microscope. Tube length was quantified using NIH ImageJ software.

[3] = cited from earlier work
NIH 3T3 fibroblasts = assay: In vitro cytocompatibility (LIVE/DEAD viability/cytotoxicity kit); assay type: cell-based; details: for cytocompatibility compared to the media+sucrose control: day 3
Procedure: (§1) Cytocompatibility was determined by fibroblast cultures treated with increasing concentrations of the peptide in culture media.
(§2) In Vitro Cytocompatibility: NIH 3T3 fibroblasts were cultured in media (Dulbecco's Modified Eagle Medium supplemented with 10% fetal bovine serum and 1% 100× penicillin streptomycin) in T75 flasks. After the cells reached confluency, they were seeded in a 96-well plate at 2,500 cells/well. Three target conditions (800 μM, 80 μM, and […]; n=6) and a control (media with sucrose; n=6) were tested. For target conditions, the peptide was supplemented in the media, and for the media control, 298 mM sucrose (formulation carrier) was added. Media was changed daily and cytocompatibility was assessed on day 3 using a LIVE/DEAD® viability/cytotoxicity kit. Images were taken on a Nikon Instruments Eclipse Ti-S inverted fluorescence microscope, and cell viability was quantified using NIH ImageJ, a known image analysis and processing software program.

[4] = as above; assay type: cell-based; details: mouse, NIH 3T3 fibroblasts; 800 μM SL-Kr5 in media, day 3; control 85-90%, p<0.05; read-out: viability of cells
Procedure: as §1, §2

Female Wistar rats = assay: In vivo subcutaneous implantation, histology; parameters: species or system rat; details: 200 μL SC implant

Chain of GRP78 (glucose-regulated protein 78) (P11021 19-654, species assumed): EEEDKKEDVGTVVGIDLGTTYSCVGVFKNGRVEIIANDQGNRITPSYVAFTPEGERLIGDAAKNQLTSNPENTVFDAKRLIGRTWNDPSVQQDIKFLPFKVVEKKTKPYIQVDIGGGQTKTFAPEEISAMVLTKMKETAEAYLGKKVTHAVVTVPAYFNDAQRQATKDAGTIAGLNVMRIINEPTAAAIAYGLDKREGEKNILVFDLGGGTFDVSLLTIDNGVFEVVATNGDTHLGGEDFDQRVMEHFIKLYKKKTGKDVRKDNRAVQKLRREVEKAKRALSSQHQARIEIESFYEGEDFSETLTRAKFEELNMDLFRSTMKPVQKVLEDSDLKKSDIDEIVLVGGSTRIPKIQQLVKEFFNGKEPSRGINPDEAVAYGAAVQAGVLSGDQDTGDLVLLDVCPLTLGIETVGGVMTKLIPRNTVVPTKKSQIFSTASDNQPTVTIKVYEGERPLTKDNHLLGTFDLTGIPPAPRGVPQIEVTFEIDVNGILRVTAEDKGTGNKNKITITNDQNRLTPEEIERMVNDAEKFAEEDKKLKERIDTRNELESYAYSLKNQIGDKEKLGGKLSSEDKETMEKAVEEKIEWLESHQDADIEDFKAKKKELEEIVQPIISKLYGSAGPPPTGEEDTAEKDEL

## PRKLYDY (Kr5)
Endothelial cells
  apoptosis of endothelial cells: induce apoptosis
[1]
  attachment to GRP78: can attach

## Cc1ccc(C(=O)Nc2ccc(S(=O)(=O)O)c3cc(S(=O)(=O)O)cc(S(=O)(=O)O)c23)cc1NC(=O)c1cccc(NC(=O)Nc2cccc(C(=O)Nc3cc(C(=O)Nc4ccc(S(=O)(=O)O)c5cc(S(=O)(=O)O)cc(S(=O)(=O)O)c45)ccc3C)c2)c1 [suramin]
[2]
  EC tube formation: inhibited

## K2(SL)6K2
[3]; no VEGF mimic
  basal level of angiogenesis: strong basal level of angiogenesis
[3]; slow biodegradation
  in vivo biodegradation time: 6 weeks

## Ac-KSLSLSLSLSLSLKGPRKLYDY-NH2 [SL-Kr5, K-(SL)6-K-G-PRKLYDY]
NIH 3T3 fibroblasts; 8 μM SL-Kr5 in media
  cytocompatibility compared to the media+sucrose control: little to no difference
NIH 3T3 fibroblasts; 80 μM SL-Kr5 in media
  cytocompatibility compared to the media+sucrose control: little to no difference
NIH 3T3 fibroblasts; fibroblast cultures, increasing peptide concentrations
  non-specific toxicity in stromal cells: did not induce non-specific toxicity
NIH 3T3 fibroblasts; over a range of concentrations
  cellular proliferation versus controls: comparable cellular proliferation to controls
[4]
  viability at 72 h, 800 µM: 55%
Female Wistar rats
  fibrous capsule: no fibrous capsule apparent
